{"source": "patent US20030087263A1", "about": "“Method of screening remedy for cancer with the use of interaction domain of p53 and mortalin” (priority 1999, published 2003)", "key": {"[1]": {"system": "mortalin", "experiment": "immunoprecipitation of GFP-p53 fragments using anti-mortalin antibody", "format": "binding", "details": "transfected cells, probed with anti-GFP antibody", "description": "(C) Mortalin was immunoprecipitated from cells transfected with GFP-tagged p53 fragments with polyclonal anti-mortalin antibodies, and was visualized with monoclonal antibodies. Immunocomplexes (Mot-IC) were also probed with monoclonal anti-GFP antibody to determine whether the p53 fusion proteins co-precipitate with mortalin (left panel). […] Bands corresponding to the IgG heavy and light chains are also detected on Mot-IC gel."}, "[2]": {"molecular_target": "T1, full-length mouse wild-type p53 (Mus musculus, UniProt P02340)", "T1 construct": "mRNA encoding full-length mouse wild-type p53; made in house; host or cells: in vitro translation in rabbit reticulocyte lysate (Stratagene)", "experiment": "in vitro binding assay of mortalin protein and p53 protein (co-immunoprecipitation)", "details": "His-tagged recombinant mortalin, in vitro translated 35S-labeled p53, co-precipitation", "method": "After preparing mRNA encoding full-length mouse wild-type p53 with a template of pSP65/p53 plasmid (Braithwaite, A. W. and Jenkins, J. R. (1989) J. Virol. 63, 1792-1799) using Transprobe T Kit (Pharmacia), [^35S]-labeled p53 protein was obtained by subjecting to in vitro translation reaction using rabbit reticulocyte lysate (Stratagene) for 1 hour in the presence of L-[^35S]methionine. After separating the translation products by SDS-PAGE, the translation reaction products were confirmed by autoradiography. The in vitro translated p53 protein was purified by immunoprecipitation with anti-p53 antibodies (PAb 421, PAb 1620 (Calbiochem), and PAb 122 (Boehringer-Mannheim)), and was used in the subsequent in vitro binding assays described below.\nAfter preparing cDNAs encoding the recombinant mortalin protein (full-length) and various deletion mutants (described later) by PCR and converting them to a form to encode a His-tagged protein by inserting the cDNAs into pQE30 vector (Qiagen) the cDNAs were introduced into E. coli for expression. The resulting bacterial extracts were purified with Ni-NTA agarose (Qiagen). […] Then, p53 protein was detected by autoradiography; mortalin and deletion mutants thereof were detected by Western blotting with anti-His antibody and ECL-chemiluminescence (Amersham)."}, "[3]": {"system": "p53-dependent transcriptional activation", "experiment": "p53-dependent luciferase reporter analysis in p53-/- mouse embryonic fibroblasts", "format": "cell-based", "details": "p53-/- MEF, PG13-luc type reporter, temperature-sensitive p53 at 32.5° C.", "description": "After preparing cDNAs that encode mutant mortalin proteins missing each of the functions shown in FIG. 3A and mortalin proteins point mutated at two different amino acid residues between mot-1 and mot-2 according to the method described in Example 1, the cDNAs were used for p53-dependent reporter analysis. Specifically, cells obtained by stable transfection of plasmid […], wherein the firefly luciferase gene has been linked to p53 responsive promoter (having the promoter sequence “[…]” and expresses the gene downstream of that sequence as a result of binding with p53 protein), and temperature-sensitive mutant p53 protein expression vector pMSVp53Val135 into mouse embryonic fibroblasts deficient in functional p53 gene (P53−/−MEF) (see, Wadhwa, R. et al. (1998) J. Biol. Chem. 273, 29586-29591) were transfected with various mortalin mutant protein expression vectors and pRL-CMV, serving as an internal control for standardizing transcription efficiency. After incubation at 32.5° C., which is an allowable temperature for the mutant p53 protein, the luciferase activity was measured."}, "[4]": {"system": "p53-dependent transcriptional activation", "experiment": "p53 responsive β-gal reporter assay by microinjection into Saos2 cells", "format": "cell-based, human", "details": "for β-Gal Staining: Percent of Blue cells / β-Gal Staining: Blue cells: Saos2, microinjected with pMSV p53 and p53 β-gal rep.", "description": "(C) The p53 activity detected for the p53 responsive β-galactosidase reporter construct was inhibited when a plasmid encoding mot-2 (b and i) , mut-11 (d and K), or mutant V16M (f and m) was simultaneously microinjected with the p53 expression plasmid. […] Microinjected cells were visualized by staining with FITC-labeled anti-rabbit IgG (a-g).\nSimilar results were obtained according to an experiment wherein the above mutant mortalin proteins, temperature-sensitive mutant p53 protein, and p53 responsive β-gal reporter gene pRGCΔfos-lacZ were introduced into a human osteosarcoma cell line Saos2 by microinjection."}, "[5]": {"system": "binding between p53 and mortalin (amino acid residues 1-435 or 105-435)", "experiment": "competitive inhibition assay of p53-mortalin binding", "details": "increasing amounts of competitor peptide", "description": "(C) The increase of the amounts of the peptide (comp. pep) corresponding to the mortalin amino acid residues 253-282 to be added reduced the […] the mortalin amino acid residues 1-435 (mot 1-435) and the peptide corresponding to mortalin amino acid residues 105-435 (mot 105-435). p53 was immunoprecipitated with the polyclonal anti-p53 antibody (CM-1) and detected by Western blotting with a monoclonal anti-p53 antibody (PAb 421)) (bands represented with an arrowhead). Co-immunoprecipitated mortalin was detected by Western blotting with anti-His tag antibody (indicated by arrows).\nNext, a competitive inhibition assay was performed to confirm the involvement of this peptide of amino acid residues 253-282 in the binding to p53."}, "[6]": {"system": "COS7 cells", "experiment": "localization of GFP-fused p53 fragments expressed in COS7 cells", "format": "cell-based", "details": "COS7 cells transfected with GFP-fused protein", "description": "(B) A photograph showing the green fluorescence of GFP in COS7 cells transfected with (a) GFP alone, (b) GFP-p53 (amino acid residues 312-352), and (c) GFP-p53 (amino acid residues 312-319).\nSince the in vitro translated product of a 43 kDa truncated p53, lacking the C terminus, lacks the ability to bind to mortalin protein as described in Example 1, it was presumed that this deleted region contains the region that is related to the binding to mortalin."}}, "note": "Where no end group is shown, it is not given here.", "data": [{"substance": "GFP-p53 (amino acid residues 372-390): green fluorescent protein fused with p53 amino acid residues 372-390 ({GFP}-KKGQSTSRHKKLMFKTEGP; UniProt P04637 372-390, looked up, fragment)", "values": [{"measurement": "binding to mortalin (co-precipitation)", "setting": "[1]", "value": "no precipitation"}]}, {"substance": "mot-1: mortalin protein cloned from normal mouse cells; differs from mot-2 by two amino acids (residues 618 and 624)", "values": [{"measurement": "binding with full-length p53 protein", "setting": "[2]", "value": "specifically bound"}, {"measurement": "inhibition of p53-dependent transcriptional activation (luciferase activity)", "setting": "[3]", "value": "did not have any effect"}, {"measurement": "β-Gal Staining: Percent of Blue cells", "setting": "[4]", "value": 88, "unit": "%"}, {"measurement": "β-Gal Staining: Blue cells", "setting": "[4]; with Anti-mot IgG", "value": 83}, {"measurement": "β-Gal Staining: Percent of Blue cells", "setting": "[4]; with Anti-mot IgG", "value": 90, "unit": "%"}, {"measurement": "β-Gal Staining: Blue cells", "setting": "[4]; number of blue cells among transfected cells", "value": 52}, {"measurement": "effect on p53-dependent transcriptional activation (β-gal reporter)", "setting": "[4]; Saos2, microinjection", "value": "did not have a significant effect"}]}, {"substance": "253-282: peptide corresponding to the mortalin amino acid residues 253-282", "values": [{"measurement": "inhibition of binding between p53 and mortalin", "setting": "[5]", "value": "inhibited binding between p53 and mortalin"}]}, {"substance": "GFP-p53 (amino acid residues 312-352): green fluorescent protein fused with p53 amino acid residues 312-352 ({GFP}-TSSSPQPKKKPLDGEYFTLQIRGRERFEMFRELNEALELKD; UniProt P04637 312-352, looked up, fragment)", "values": [{"measurement": "binding to mortalin (co-precipitation)", "setting": "[1]", "value": "confirmed to bind to mortalin"}, {"measurement": "expressed proteins localized to the vicinity of the nucleus", "setting": "[6]", "value": "about 90%"}]}]}
